From patent US20040224960A1, “Pharmaceutical compositions and methods for their use” (Agouron Pharmaceuticals, Inc., priority 2003, published 2004) come the findings set out here.

T1 sequence (P10635 whole entry): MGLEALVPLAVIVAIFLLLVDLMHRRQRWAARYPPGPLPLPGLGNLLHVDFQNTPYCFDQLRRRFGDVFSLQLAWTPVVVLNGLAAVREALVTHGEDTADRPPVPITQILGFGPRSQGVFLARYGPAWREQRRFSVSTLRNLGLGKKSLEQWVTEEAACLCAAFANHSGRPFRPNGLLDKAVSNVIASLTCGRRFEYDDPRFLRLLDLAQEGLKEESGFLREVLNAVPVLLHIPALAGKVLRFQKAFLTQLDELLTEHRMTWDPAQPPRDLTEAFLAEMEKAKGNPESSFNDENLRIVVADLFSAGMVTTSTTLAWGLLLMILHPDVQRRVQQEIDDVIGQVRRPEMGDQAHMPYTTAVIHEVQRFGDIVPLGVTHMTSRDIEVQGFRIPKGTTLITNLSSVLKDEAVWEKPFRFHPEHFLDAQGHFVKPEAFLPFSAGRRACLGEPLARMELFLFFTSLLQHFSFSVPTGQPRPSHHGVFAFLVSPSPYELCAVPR

This assay has as its target T1, cytochrome P450 2D6 (Homo sapiens, UniProt P10635).
T1 construct: were incubated with human liver microsomes (0.25 mg/mL protein and 0.075 μM P450); from tissue; host or cells: human liver microsomes
In words: inhibition of cytochrome P450 2D6 in human liver microsomes (dextromethorphan to dextrorphan). It is filed as biochemical. The settings on record: human liver microsomes 0.25 mg/mL protein, 8 μM dextromethorphan, 1 mM NADPH, 37° C., 20 min; average IC50 with number of tests in parentheses. The method, then: Following the 20 min incubation, the reaction was quenched by addition of 200 μL acetonitrile containing 0.1 μM buspirone as an internal standard. The samples were then vortex mixed and centrifuged to pellet the protein. The supernantant was transferred, dried under nitrogen flow and reconstituted in mobile phase. A 10 uL aliquot was injected onto a gradient reversed phase HPLC system with a Phenomenex Luna C18 (50×4.6 mm) column. Dextrorphan, formed by the metabolism of dextromethorphan by CYP 2D6, was monitored using tandem MS/MS in the APCl mode with the MRM transition of m/z 258.3>156.6. Remaining-CYP2D6 activity (%) was determined for the samples relative to a vehicle control. The data were analyzed by non-linear regression according to % R=% Rmax[formula](1−(C/(C+IC50))) using WinNonLin (version 4.0.1), where % R is the % remaining CYP 2D6 activity relative to the vehicle control, C is the concentration of the compound of interest, and IC50 is the inhibitory concentration of the compound of interest giving 50% inhibition of maximal % remaining activity. The data are reported as IC50s (μM). If more than one assay was performed for a particular compound, the average IC50 is reported with the number of tests in parentheses.
(In general: Liver microsomes are a subcellular fraction often used to study metabolism.)
Regarding `Cc1nc[nH]c1CC1=C(O)CC(CCc2ccc(C(C)(C)C#N)c(F)c2)(C2CCCC2)OC1=O` (centres unmarked) [Compound 15, 2-[4-(2-{2-cyclopentyl-4-hydroxy-5-[(4-methyl-1H-imidazol-5-yl)methyl]-6-oxo-3,6-dihydro-2H-pyran-2-yl}ethyl)-2-fluorophenyl]-2-methylpropanenitrile], the IC50 was 720 nM.

As to `Cc1cnc2nc(CC3=C(O)CC(CCc4ccc(C(C)(C)C#N)c(F)c4)(C4CCCC4)OC3=O)nn2c1` (racemic) [Compound 8, 2-[4-(2-{2-cyclopentyl-4-hydroxy-5-[(6-methyl[1,2,4]triazolo[1,5-a]pyrimidin-2-yl)methyl]-6-oxo-3,6-dihydro-2H-pyran-2-yl}ethyl)-2-fluorophenyl]-2-methylpropanenitrile], the IC50 was under 74 nM.

`Cc1cc(C)n2nc(CC3=C(O)CC(CCc4ccc(C5(C#N)CC5)c(F)c4)(C4CCCC4)OC3=O)nc2n1` (racemic) [Compound 27, 1-[4-(2-{2-cyclopentyl-5-[(5,7-dimethyl[1,2,4]triazolo[1,5-a]pyrimidin-2-yl)methyl]-4-hydroxy-6-oxo-3,6-dihydro-2H-pyran-2-yl}ethyl)-2-fluorophenyl]cyclopropanecarbonitrile]: the IC50 is 300 nM.

Consider `CCc1cc(CCC2(C3CCCC3)CC(O)=C(Cc3nc4nc(C)cc(C)n4n3)C(=O)O2)ccc1O` (centres unmarked) [Compound 2, 6-Cyclopentyl-3-(5,7-dimethyl-[1,2,4]triazolo[1,5-a]pyrimidin-2-ylmethyl)-6-(2-(3-ethyl-4-hydroxy-phenyl)-ethyl]-4-hydroxy-5,6-dihydro-pyran-2-one], for which the IC50 was determined as 1400 nM.

`CCc1cc(CCC2(C3CCCC3)CC(O)=C(Cc3nc4nc(C)cc(C)n4n3)C(=O)O2)cc(Cl)c1O` (centres unmarked) [Compound 6, 6-[2-(3-chloro-5-ethyl-4-hydroxyphenyl)ethyl]-6-cyclopentyl-3-[(5,7-dimethyl[1,2,4]triazolo[1,5-a]pyrimidin-2-yl)methyl]-4-hydroxy-5,6-dihydro-2H-pyran-2-one]: the IC50 was 190 nM.

With `N#CC1(c2ccc(CCC3(C4CCCC4)CC(O)=C(Cc4nc5ncc(Cl)cn5n4)C(=O)O3)cc2F)CC1` (centres unmarked) [Compound 14, 1-[4-(2-{5-[(6-chloro[1,2,4]triazolo[1,5-a]pyrimidin-2-yl)methyl]-2-cyclopentyl-4-hydroxy-6-oxo-3,6-dihydro-2H-pyran-2-yl}ethyl)-2-fluorophenyl]cyclopropanecarbonitrile], the IC50 came out at 270 nM.

As for `Cc1cnc2nc(CC3=C(O)CC(CCc4cc(F)c(C(C)(C)C#N)c(F)c4)(C4CCCC4)OC3=O)nn2c1` (single isomer, unassigned) [Compound 31, 2-[4-(2-{2-cyclopentyl-4-hydroxy-5-[(6-methyl[1,2,4]triazolo[1,5-a]pyrimidin-2-yl)methyl]-6-oxo-3,6-dihydro-2H-pyran-2-yl}ethyl)-2,6-difluorophenyl]-2-methylpropanenitrile], the IC50 was at most 74 nM.

For the molecule `CC(C)(C#N)c1ccc(CCC2(C3CCCC3)CC(O)=C(Cc3nc4ncc(Cl)cn4n3)C(=O)O2)cc1F` (centres unmarked) [Compound 19], the IC50 was determined as 160 nM.

Consider `COc1cc(C(C)(C)C#N)c(F)cc1CCC1(C2CCCC2)CC(O)=C(Cc2nc3ncc(C)cn3n2)C(=O)O1` (centres unmarked) [Compound 33, 2-[4-(2-{2-cyclopentyl-4-hydroxy-5-[(6-methyl[1,2,4]triazolo[1,5-a]pyrimidin-2-yl)methyl]-6-oxo-3,6-dihydro-2H-pyran-2-yl}ethyl)-2-fluoro-5-methoxyphenyl]-2-methylpropanenitrile], for which the IC50 was under 74 nM.

In the case of `Cc1cnc2nc(CC3=C(O)CC(CCc4ccc(C(C)(C)C#N)c(F)c4)(C4CCCC4)OC3=O)nn2c1` (centres unmarked) [Compound 4, 2-[4-(2-{2-cyclopentyl-4-hydroxy-5-[(6-methyl[1,2,4]triazolo[1,5-a]pyrimidin-2-yl)methyl]-6-oxo-3,6-dihydro-2H-pyran-2-yl}ethyl)-2-fluorophenyl]-2-methylpropanenitrile], the IC50 is under 300 nM.

As to `Cc1cnc2nc(CC3=C(O)CC(CCc4ccc(C(C)(C)C#N)c(F)c4)(C4CCCC4)OC3=O)nn2c1` (racemic) [Compound 9, 2-[4-(2-{2-cyclopentyl-4-hydroxy-5-[(6-methyl[1,2,4]triazolo[1,5-a]pyrimidin-2-yl)methyl]-6-oxo-3,6-dihydro-2H-pyran-2-yl}ethyl)-2-fluorophenyl]-2-methylpropanenitrile], the IC50 is under 74 nM.

Turning to `Cc1cnc2nc(CC3=C(O)CC(CCc4ccc(C5(C#N)CC5)c(F)c4)(C4CCCC4)OC3=O)nn2c1` (single isomer, unassigned) [Compound 23, 1-[4-(2-{2-cyclopentyl-4-hydroxy-5-[(6-methyl[1,2,4]triazolo[1,5-a]pyrimidin-2-yl)methyl]-6-oxo-3,6-dihydro-2H-pyran-2-yl}ethyl)-2-fluorophenyl]cyclopropanecarbonitrile], the IC50 came out at 280 nM.

Turning to `Cc1cc(C)n2nc(CC3=C(O)CC(COc4ccc(C(C)(C)C#N)c(F)c4)(C4CCCC4)OC3=O)nc2n1` (centres unmarked) [Compound 16, 2-[4-({2-cyclopentyl-5-[(5,7-dimethyl[1,2,4]triazolo[1,5-a]pyrimidin-2-yl)methyl]-4-hydroxy-6-oxo-3,6-dihydro-2H-pyran-2-yl}methoxy)-2-fluorophenyl]-2-methylpropanenitrile], the IC50 came to 200 nM.

Consider `Cc1cnc2nc(CC3=C(O)CC(CCc4ccc(C5(C#N)CCC5)c(F)c4)(C4CCCC4)OC3=O)nn2c1` (centres unmarked) [Compound 29, 1-[4-(2-{2-cyclopentyl-4-hydroxy-5-[(6-methyl[1,2,4]triazolo[1,5-a]pyrimidin-2-yl)methyl]-6-oxo-3,6-dihydro-2H-pyran-2-yl}ethyl)-2-fluorophenyl]cyclobutanecarbonitrile], for which the IC50 came out at 1400 nM.

With `CC(C)(O)c1ccc(CCC2(C3CCCC3)CC(O)=C(Cc3nc4ncc(Cl)cn4n3)C(=O)O2)cc1F` (centres unmarked) [Compound 22, 3-[(6-chloro[1,2,4]triazolo[1,5-a]pyrimidin-2-yl)methyl]-6-cyclopentyl-6-{2-[3-fluoro-4-(1-hydroxy-1-methylethyl)phenyl]ethyl}-4-hydroxy-5,6-dihydro-2H-pyran-2-one], the IC50 worked out at 600 nM.

Turning to `Cc1cnc2nc(CC3=C(O)CC(CCc4cc(F)c(C(C)(C)C#N)c(F)c4)(C4CCCC4)OC3=O)nn2c1` (centres unmarked) [Compound 13, 2-[4-(2-{2-cyclopentyl-4-hydroxy-5-[(6-methyl[1,2,4]triazolo[1,5-a]pyriimidin-2-yl)methyl]-6-oxo-3,6-dihydro-2H-pyran-2-yl}ethyl)-2,6-difluorophenyl]-2-methylpropanenitrile], the IC50 is under 74 nM.

Take `N#CC1(c2ccc(CCC3(C4CCCC4)CC(O)=C(Cc4nc5ncccn5n4)C(=O)O3)cc2F)CC1` (racemic) [Compound 25, 1-(4-{2-[2-cyclopentyl-4-hydroxy-6-oxo-5-([1,2,4]triazolo[1,5-a]pyrimidin-2-ylmethyl)-3,6-dihydro-2H-pyran-2-yl]ethyl}-2-fluorophenyl)cyclopropanecarbonitrile]: the IC50 amounted to 1100 nM.

Usually IC50 stands for the concentration that inhibits the measured activity by half.
